Results taken from US20210161174A1, “FEED ADDITIVE FOR FARMED ANIMALS” (ADISSEO FRANCE S.A.S., priority 2018, published 2021).

Experiment: Example 1: broiler performance (body weight, gain, feed intake, FCR), PQQ in diet, 0 to 49 days
Assay type: in vivo, Broiler Chicken (Ross 708)
From the text: Study Animals: • Animal: Broiler Chicken • Breed/Strain: Ross 708 • Description: Day-of-hatch male chicks, sexed at hatchery • Sex: Male Total number of treatments: 4 Total number of replicates per treatment: 12 Total number of chicks per replicate: 40 Initial age: day-of-hatch: 0 days-of-age Final age: 7 weeks: 49 days-of-age. Feed will be changed based on the days of each phase. • Starter feed will be weighed out and fed from day 0 to 14. On day 14, non-consumed starter feed will be weighed by pen and discarded. • Grower feed will be weighed, issued and fed from day 14 until 28. On day 28, non-consumed grower feed will be weighed by pen and discarded. • Finisher feed will be weighed, issued and fed from day 28 until 42. On day 42, non-consumed finisher feed will be weighed by pen and discarded. • Withdraw feed will be weighed, issued and fed from day 42 until 49. On day 49, non-consumed finisher feed will be weighed by pen and discarded. Performance: Feed consumption and pen weights are determined on days 0, 14, 21, 28, 35, 42 and 49 to calculate average body weight (BW), body weight gain (BWG) and feed conversion ratio (FCR). Final bird weights: At the end of the grow-out period (Day 49), all birds are weighed, as well as any and all remaining feed. Randomized Complete Block Design with 4 treatments×12 replicates/treatment (40 birds/pen), randomized within blocks across the barn to minimize differences in environmental condition. The pen is the experimental unit. Dietary Treatments • Control (NC, negative control without PQQ) • 0.5 ppm PQQ • 1 ppm PQQ • 2 ppm PQQ The results are presented in the following tables 1-4 for broilers fed diets from the first week to the seventh week (corresponding to 0 to 49 days of age). The values are means and SD is standard variation. The feed conversion ratio is the ratio between feed intake and body weight gain.

With O=C(O)c1cc(C(=O)O)c2c(n1)C(=O)C(=O)c1cc(C(=O)O)[nH]c1-2 [PQQ, pyrroloquinoline quinone] as the molecule, how does the body weight (0.5 ppm PQQ, wk 1) read?
The body weight was 0.139 kg.

What about the “feed conversion ratio (FCR)” value (0.5 ppm PQQ, wk 1) of the same molecule?
The value was 1.491.

And the feed intake (0.5 ppm PQQ, wk 1)?
Its feed intake is 0.142 kg.

And the “weekly body weight gain” value (0.5 ppm PQQ, wk 1)?
The value was 0.095 kg.

What about the body weight (0.5 ppm PQQ, wk 2) of the same molecule?
Its body weight is 0.355 kg.

And the “feed conversion ratio (FCR)” value (0.5 ppm PQQ, wk 2)?
Its value is 1.400.

And the feed intake (0.5 ppm PQQ, wk 2)?
The feed intake was 0.299 kg.

What about the “weekly body weight gain” value (0.5 ppm PQQ, wk 2) of the same molecule?
The value was 0.215 kg.

What about the body weight (0.5 ppm PQQ, wk 3) of the same molecule?
Its body weight is 0.763 kg.

And the “feed conversion ratio (FCR)” value (0.5 ppm PQQ, wk 3)?
Its value is 1.623.

And the feed intake (0.5 ppm PQQ, wk 3)?
Its feed intake is 0.671 kg.

What about the “weekly body weight gain” value (0.5 ppm PQQ, wk 3) of the same molecule?
The value was 0.414 kg.

What about the body weight (0.5 ppm PQQ, wk 4) of the same molecule?
The body weight was 1.286 kg.

And the “feed conversion ratio (FCR)” value (0.5 ppm PQQ, wk 4)?
Its value is 1.435.

And the feed intake (0.5 ppm PQQ, wk 4)?
The feed intake was 0.796 kg.

And the “weekly body weight gain” value (0.5 ppm PQQ, wk 4)?
The value was 0.556 kg.

And the body weight (0.5 ppm PQQ, wk 5)?
Its body weight is 2.042 kg.

What about the “feed conversion ratio (FCR)” value (0.5 ppm PQQ, wk 5) of the same molecule?
The value was 1.617.

What about the feed intake (0.5 ppm PQQ, wk 5) of the same molecule?
Its feed intake is 1.139 kg.

And the “weekly body weight gain” value (0.5 ppm PQQ, wk 5)?
Its value is 0.688 kg.

And the body weight (0.5 ppm PQQ, wk 6)?
The body weight was 2.808 kg.

What about the “feed conversion ratio (FCR)” value (0.5 ppm PQQ, wk 6) of the same molecule?
Its value is 1.755.

What about the feed intake (0.5 ppm PQQ, wk 6) of the same molecule?
Its feed intake is 1.346 kg.

What about the “weekly body weight gain” value (0.5 ppm PQQ, wk 6) of the same molecule?
The value was 0.767 kg.

And the body weight (0.5 ppm PQQ, wk 7)?
Its body weight is 3.416 kg.

And the “feed conversion ratio (FCR)” value (0.5 ppm PQQ, wk 7)?
The value was 1.603.

What about the feed intake (0.5 ppm PQQ, wk 7) of the same molecule?
Its feed intake is 0.986 kg.

And the “weekly body weight gain” value (0.5 ppm PQQ, wk 7)?
Its value is 0.622 kg.

And the “influence on the body weight” value (0.5 ppm, as from the second week)?
The value was “positive influence”.

What about the body weight (1.0 ppm PQQ, wk 1) of the same molecule?
Its body weight is 0.145 kg.

What about the “feed conversion ratio (FCR)” value (1.0 ppm PQQ, wk 1) of the same molecule?
The value was 1.514.

What about the feed intake (1.0 ppm PQQ, wk 1) of the same molecule?
Its feed intake is 0.151 kg.

What about the “weekly body weight gain” value (1.0 ppm PQQ, wk 1) of the same molecule?
Its value is 0.100 kg.

And the body weight (1.0 ppm PQQ, wk 2)?
Its body weight is 0.371 kg.

What about the “feed conversion ratio (FCR)” value (1.0 ppm PQQ, wk 2) of the same molecule?
The value was 1.418.

And the feed intake (1.0 ppm PQQ, wk 2)?
The feed intake was 0.315 kg.

And the “weekly body weight gain” value (1.0 ppm PQQ, wk 2)?
The value was 0.225 kg.

What about the body weight (1.0 ppm PQQ, wk 3) of the same molecule?
The body weight was 0.790 kg.

What about the “feed conversion ratio (FCR)” value (1.0 ppm PQQ, wk 3) of the same molecule?
The value was 1.619.

What about the feed intake (1.0 ppm PQQ, wk 3) of the same molecule?
Its feed intake is 0.678 kg.

And the “weekly body weight gain” value (1.0 ppm PQQ, wk 3)?
Its value is 0.419 kg.

And the body weight (1.0 ppm PQQ, wk 4)?
The body weight was 1.329 kg.

What about the “feed conversion ratio (FCR)” value (1.0 ppm PQQ, wk 4) of the same molecule?
The value was 1.427.

And the feed intake (1.0 ppm PQQ, wk 4)?
The feed intake was 0.816 kg.

What about the “weekly body weight gain” value (1.0 ppm PQQ, wk 4) of the same molecule?
The value was 0.573 kg.

What about the body weight (1.0 ppm PQQ, wk 5) of the same molecule?
The body weight was 2.112 kg.

And the “feed conversion ratio (FCR)” value (1.0 ppm PQQ, wk 5)?
The value was 1.608.

And the feed intake (1.0 ppm PQQ, wk 5)?
Its feed intake is 1.161 kg.

What about the “weekly body weight gain” value (1.0 ppm PQQ, wk 5) of the same molecule?
Its value is 0.723 kg.

And the body weight (1.0 ppm PQQ, wk 6)?
The body weight was 2.927 kg.

What about the “feed conversion ratio (FCR)” value (1.0 ppm PQQ, wk 6) of the same molecule?
The value was 1.741.

And the feed intake (1.0 ppm PQQ, wk 6)?
Its feed intake is 1.370 kg.

What about the “weekly body weight gain” value (1.0 ppm PQQ, wk 6) of the same molecule?
Its value is 0.787 kg.

And the body weight (1.0 ppm PQQ, wk 7)?
The body weight was 3.612 kg.

What about the “feed conversion ratio (FCR)” value (1.0 ppm PQQ, wk 7) of the same molecule?
Its value is 1.616.

And the feed intake (1.0 ppm PQQ, wk 7)?
Its feed intake is 1.106 kg.

What about the “weekly body weight gain” value (1.0 ppm PQQ, wk 7) of the same molecule?
The value was 0.686 kg.

What about the “influence on the body weight” value (1 ppm and 2 ppm, as from the first week up to the end of the assay) of the same molecule?
The value was “positive influence”.

What about the body weight (2.0 ppm PQQ, wk 1) of the same molecule?
Its body weight is 0.146 kg.

And the “feed conversion ratio (FCR)” value (2.0 ppm PQQ, wk 1)?
Its value is 1.406.

And the feed intake (2.0 ppm PQQ, wk 1)?
The feed intake was 0.142 kg.

What about the “weekly body weight gain” value (2.0 ppm PQQ, wk 1) of the same molecule?
Its value is 0.102 kg.

And the body weight (2.0 ppm PQQ, wk 2)?
Its body weight is 0.373 kg.

And the “feed conversion ratio (FCR)” value (2.0 ppm PQQ, wk 2)?
Its value is 1.414.

What about the feed intake (2.0 ppm PQQ, wk 2) of the same molecule?
The feed intake was 0.315 kg.

And the “weekly body weight gain” value (2.0 ppm PQQ, wk 2)?
Its value is 0.224 kg.

What about the body weight (2.0 ppm PQQ, wk 3) of the same molecule?
Its body weight is 0.794 kg.

What about the “feed conversion ratio (FCR)” value (2.0 ppm PQQ, wk 3) of the same molecule?
Its value is 1.608.

What about the feed intake (2.0 ppm PQQ, wk 3) of the same molecule?
Its feed intake is 0.645 kg.

And the “weekly body weight gain” value (2.0 ppm PQQ, wk 3)?
Its value is 0.425 kg.

What about the body weight (2.0 ppm PQQ, wk 4) of the same molecule?
The body weight was 1.331 kg.

And the “feed conversion ratio (FCR)” value (2.0 ppm PQQ, wk 4)?
The value was 1.469.

And the feed intake (2.0 ppm PQQ, wk 4)?
Its feed intake is 0.813 kg.

What about the “weekly body weight gain” value (2.0 ppm PQQ, wk 4) of the same molecule?
Its value is 0.548 kg.

And the body weight (2.0 ppm PQQ, wk 5)?
Its body weight is 2.065 kg.

And the “feed conversion ratio (FCR)” value (2.0 ppm PQQ, wk 5)?
The value was 1.605.

What about the feed intake (2.0 ppm PQQ, wk 5) of the same molecule?
The feed intake was 1.141 kg.

What about the “weekly body weight gain” value (2.0 ppm PQQ, wk 5) of the same molecule?
The value was 0.727 kg.

What about the body weight (2.0 ppm PQQ, wk 6) of the same molecule?
The body weight was 2.835 kg.

And the “feed conversion ratio (FCR)” value (2.0 ppm PQQ, wk 6)?
The value was 1.741.

And the feed intake (2.0 ppm PQQ, wk 6)?
The feed intake was 1.336 kg.

And the “weekly body weight gain” value (2.0 ppm PQQ, wk 6)?
Its value is 0.77 kg.

What about the body weight (2.0 ppm PQQ, wk 7) of the same molecule?
Its body weight is 3.472 kg.

What about the “feed conversion ratio (FCR)” value (2.0 ppm PQQ, wk 7) of the same molecule?
The value was 1.615.

And the feed intake (2.0 ppm PQQ, wk 7)?
The feed intake was 1.041 kg.

And the “weekly body weight gain” value (2.0 ppm PQQ, wk 7)?
The value was 0.648 kg.

What about the “influence on the feed intake” value (as from a concentration of 1 ppm) of the same molecule?
Its value is “has an influence on the feed intake”.
